Data reported in US20050282818A1, “Ubiquitin ligase inhibitors” (Rigel Pharmaceuticals, Inc., priority 2004, published 2005).

Tests used:
[1] = target: T1, TRAF6/Uev1A/Ubc13 (Homo sapiens, UniProt Q9Y4K3); test: TRAF6/Uev1A/Ubc13 plate-based ubiquitin ligase assay; format: biochemical
T1 sequence (Q9Y4K3 1-522): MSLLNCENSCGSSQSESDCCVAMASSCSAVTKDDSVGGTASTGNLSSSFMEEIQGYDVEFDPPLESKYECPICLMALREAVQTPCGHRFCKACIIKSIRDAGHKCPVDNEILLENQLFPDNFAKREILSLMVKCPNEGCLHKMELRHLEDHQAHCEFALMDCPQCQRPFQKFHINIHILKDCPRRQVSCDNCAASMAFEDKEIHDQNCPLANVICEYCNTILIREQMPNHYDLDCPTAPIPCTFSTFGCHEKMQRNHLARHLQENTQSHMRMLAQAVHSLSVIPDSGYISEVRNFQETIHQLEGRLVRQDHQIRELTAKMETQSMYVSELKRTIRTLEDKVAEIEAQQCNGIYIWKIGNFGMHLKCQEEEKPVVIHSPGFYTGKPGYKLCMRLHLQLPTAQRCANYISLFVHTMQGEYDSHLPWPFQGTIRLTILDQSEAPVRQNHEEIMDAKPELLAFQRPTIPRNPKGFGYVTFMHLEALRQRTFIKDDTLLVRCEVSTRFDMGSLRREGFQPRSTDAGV
Outline: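 Ligase activity was read as luminescence from anti-Flag/HRP detection of Flag-ubiquitin bound to casein-blocked Ni-plates alongside His-ubiquitin after a 1 h room-temperature reaction. Buffer: 62.5 mM Tris pH 7.5, 6.25 mM MgCl2, 1.0 mM DTT, 2 μM ATP; E1, Uev1a/Ubc13 and TRAF6 added last to start. IC50s derived across compound concentrations.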

[2] = system: ICAM-1 expression in A549 cells; test: ICAM assay (IL-1 induced ICAM-1/CD54 expression in A549 cells); format: cell-based, human; conditions: Homo sapiens, A549, ICAM assay
Outline: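 A549 cells, 10,000/well, preincubated with compound 1 h at 37° C, then stimulated with IL-1 (4 μl of 25 ng/ml added) for 4 h. Surface ICAM-1 detected by anti-CD54 plus anti-mouse IgG staining for 1 h, luminescent read-out after PBS washes.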

[3] = target: APC11/APC2 (Homo sapiens, UniProt Q9NYG5+Q9UJX6); test: APC-11/APC-2 ligase assay (APC auto ubiquitination); format: biochemical; conditions: APC assay
Procedure: For the assays described below, the TRAF6/Uev1A/UBC13 assay is the biochemical plate-based assay of TRAF6 ligase activity using Ubc13 as the E2 enzyme. The gel-based assay is the biochemical solution-based TRAF6 ligase assay (by SDS-PAGE and Western blot) to confirm the plate-based ELISA assay. The APC assay is an assay which is another E3 ligase (APC2/APC11) biochemical assay.
E3 (His APC11/APC2— “APC”) auto ubiquitination was measured as described in U.S. patent application Ser. No. 09/826,312 (Publication No. U.S. 2002 0042083 A1), which is incorporated by reference in its entirety. Details of the protocol are described below. Activity in the presence of the compound was determined relative to a parallel control in which only DMSO was added. Values of the IC50 were typically determined using 6 or 8 different concentrations of the compound, although as few as 2 concentrations may be used to approximate the IC50 value.
Nickel coated 96 well plates (Pierce 15242) were blocked for 1 hour with 100 μl of blocking buffer at room temperature. The plates were washed 4 times with 225 μl of 1 […]PBS and 80 μl of the reaction buffer were added that contained 100 ng/well of Flag ubiquitin. To this, 10 μl of the test compound diluted in DMSO were added. After the test compound was added, 10 μl of E1 (human), E2 (Ubch5c), and APC in Protein Buffer was added to obtain a final concentration of 5 ng/well of E1, 20 ng/well of E2 and 100 ng/well of APC. The plates were shaken for 10 minutes and incubated at room temperature for 1 hour. After incubation, the plates were washed 4 times with 225 μl of 1×PBS and 100 μl/well of Antibody Mix were added to each well. The plates were incubated at room temperature for another hour after which they were washed 4 times with 225 μl of 1×PBS and 100 μl/well of Lumino substrate were added to each well. The luminescence was measured by using a BMG luminescence microplate reader. The Blocking Buffer (1% Casein in 1×PBS) was stored at 4° C. until use.
The reaction buffer consisted of 62.5 mM Tris pH 7.6 (Trizma Base—Sigma T 8524), 3 mM MgCl2 (Magnesium Chloride—Sigma M 2393), 1 mM DTT (Sigma D 9779), 2.5 mM ATP (Roche Boehringer Mann Corp. 635 316), 100 ng/well of Flag ubiquitin, 0.1% BSA (Sigma A 7906), and 0.05% Tween 20 (Sigma P 7949).
The Protein Buffer consisted of 20 mM Tris pH 7.6, 10% glycerol (Sigma G 5516) and 1 mM DTT.
The antibody mix consisted of 0.25% BSA (Sigma A 7906) in 1×PBS, 1/50,000 anti Flag (Sigma F 3165), 1/100,000 of anti Mouse IgG HRP (Jackson Imrunoresearch #115 035 146).
The substrate mix consisted of SuperSignal Substrate from Pierce (catalog number 37070ZZ) and was prepared by mixing 100 ml of the peroxide solution, 100 ml of the enhancer solution and 100 ml of Milli Q® water.

Sequence of APC11/APC2 (Q9NYG5 whole entry): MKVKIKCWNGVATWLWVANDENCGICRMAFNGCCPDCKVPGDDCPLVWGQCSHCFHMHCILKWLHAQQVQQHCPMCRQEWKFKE
Sequence of APC11/APC2 (Q9UJX6 whole entry): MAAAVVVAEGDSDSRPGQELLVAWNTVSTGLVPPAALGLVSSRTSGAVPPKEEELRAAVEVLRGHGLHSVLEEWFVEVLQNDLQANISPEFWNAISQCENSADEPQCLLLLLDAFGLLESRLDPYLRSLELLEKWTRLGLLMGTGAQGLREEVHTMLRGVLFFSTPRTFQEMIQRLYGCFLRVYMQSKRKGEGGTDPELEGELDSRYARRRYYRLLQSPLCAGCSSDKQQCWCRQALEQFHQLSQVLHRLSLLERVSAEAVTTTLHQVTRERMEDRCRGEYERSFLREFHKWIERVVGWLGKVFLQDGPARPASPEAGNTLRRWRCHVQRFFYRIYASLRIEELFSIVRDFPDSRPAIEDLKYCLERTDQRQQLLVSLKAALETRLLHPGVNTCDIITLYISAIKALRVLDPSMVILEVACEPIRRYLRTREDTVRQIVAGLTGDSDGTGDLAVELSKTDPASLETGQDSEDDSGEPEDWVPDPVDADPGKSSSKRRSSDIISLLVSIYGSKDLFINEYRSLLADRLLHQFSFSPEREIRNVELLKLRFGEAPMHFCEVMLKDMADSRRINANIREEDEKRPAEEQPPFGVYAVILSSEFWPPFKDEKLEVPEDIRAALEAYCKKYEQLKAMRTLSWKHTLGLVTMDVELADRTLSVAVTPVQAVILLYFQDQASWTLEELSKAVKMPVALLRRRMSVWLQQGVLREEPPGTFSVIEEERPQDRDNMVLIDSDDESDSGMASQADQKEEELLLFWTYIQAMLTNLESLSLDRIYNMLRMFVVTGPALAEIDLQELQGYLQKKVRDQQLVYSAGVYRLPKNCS

Structure (SMILES) | IC50 [1] | IC50 [2] | IC50 [3]
COC(=O)c1ccc(Cl)cc1Nc1ccc(S(=O)(=O)Nc2cc(Cl)ccc2C(=O)OC)c2nonc12 [compound 361, methyl 4-chloro-2-(7-[N-{5-chloro-2-(methoxycarbonyl)phenyl}sulfamoyl]-2,1,3-benzoxadiazol-4-ylamino)benzoate] | 1 to 20 µM | ≥ 20 µM | ≥ 20 µM
COc1cc(Cl)c(C)cc1NS(=O)(=O)c1ccc(Cl)c2nonc12 [compound 362, 7-chloro-N-(4-chloro-2-methoxy-5-methylphenyl)-2,1,3-benzoxadiazole-4-sulfonamide] | ≥ 20 µM | 1 to 20 µM | ≥ 20 µM
O=S(=O)(Nc1ccc2[nH]ccc2c1)c1ccc(Cl)c2nonc12 [compound 363, 7-chloro-N-(1H-indol-5-yl)-2,1,3-benzoxadiazole-4-sulfonamide] | ≥ 20 µM | 1 to 20 µM | ≥ 20 µM
O=S(=O)(Nc1ccc(F)cc1F)c1ccc(Cl)c2nonc12 [compound 364, 7-chloro-N-(2,4-difluorophenyl)-2,1,3-benzoxadiazole-4-sulfonamide] | ≥ 20 µM | ≥ 20 µM | ≥ 20 µM
O=S(=O)(Nc1cc(Cl)ccc1Cl)c1ccc(Cl)c2nonc12 [compound 365, 7-chloro-N-(2,5-dichlorophenyl)-2,1,3-benzoxadiazole-4-sulfonamide] | ≥ 20 µM | ≥ 20 µM | ≥ 20 µM
O=S(=O)(Nc1ccccc1OC(F)(F)F)c1ccc(Cl)c2nonc12 [compound 366, 7-chloro-N-(2-[trifluoromethoxy]phenyl)-2,1,3-benzoxadiazole-4-sulfonamide] | ≥ 20 µM | 1 to 20 µM | ≥ 20 µM
COc1ccc(OC)c(NS(=O)(=O)c2ccc(Nc3ccccc3OC)c3nonc23)c1 [compound 367, N-(2,5-dimethoxyphenyl)-7-([2-methoxyphenyl]amino)-2,1,3-benzoxadiazole-4-sulfonamide] | ≥ 20 µM | ≥ 20 µM | ≥ 20 µM
Cc1cc(NS(=O)(=O)c2ccc(Cl)c3nonc23)no1 [compound 368, 7-chloro-N-(5-methylisoxazol-3-yl)-2,1,3-benzoxadiazole-4-sulfonamide] | ≥ 20 µM | ≥ 20 µM | ≥ 20 µM
COc1ccc(OC)c(NS(=O)(=O)c2ccc(N3CCOCC3)c3nonc23)c1 [compound 369, N-(2,5-dimethoxyphenyl)-7-(morpholin-4-yl)-2,1,3-benzoxadiazole-4-sulfonamide] | ≥ 20 µM | ≥ 20 µM | ≥ 20 µM
Cc1cc2cc(NS(=O)(=O)c3ccc(Cl)c4nonc34)ccc2[nH]1 [compound 370, 7-chloro-N-(2-methyl-1H-indol-5-yl)-2,1,3-benzoxadiazole-4-sulfonamide] | ≥ 20 µM | 1 to 20 µM | ≥ 20 µM
O=S(=O)(Nc1ccc(F)cc1F)c1ccc(Nc2ccc(F)cc2F)c2nonc12 [compound 371, N-(2,4-difluorophenyl)-7-([2,4-difluorophenyl]amino)-2,1,3-benzoxadiazole-4-sulfonamide] | ≥ 20 µM | ≥ 20 µM | ≥ 20 µM
O=S(=O)(Nc1ccccc1F)c1ccc(N2CCOCC2)c2nonc12 [compound 372, N-(2-fluorophenyl)-7-(morpholin-4-yl)-2,1,3-benzoxadiazole-4-sulfonamide] | ≥ 20 µM | ≥ 20 µM | ≥ 20 µM
O=[N+]([O-])c1ccc(Nc2ccccc2OC(F)(F)F)c2nonc12 [compound 373] | ≥ 20 µM | 1 to 20 µM | 1 to 20 µM
O=S(=O)(Nc1ccncn1)c1ccc(Cl)c2nonc12 [compound 374, 7-chloro-N-1,3-pyrimidin-4-yl-2,1,3-benzoxadiazole-4-sulfonamide] | ≥ 20 µM | ≥ 20 µM | ≥ 20 µM
Nc1ccc(N2CCOCC2)c2nonc12 [compound 375, 7-(morpholin-4-yl)-2,1,3-benzoxadiazol-4-amine] | ≥ 20 µM | ≥ 20 µM | ≥ 20 µM
O=S(=O)(Nc1cccc(F)c1F)c1ccc(Sc2cccc3cccnc23)c2nonc12 [compound 376, N-(2,3-difluorophenyl)-7-(quinolin-8-ylthio)-2,1,3-benzoxadiazole-4-sulfonamide] | ≥ 20 µM | ≥ 20 µM | 1 to 20 µM
O=S(=O)(Nc1cccc(F)c1F)c1ccc(Sc2ccncn2)c2nonc12 [compound 377, N-(2,3-difluorophenyl)-7-(pyrimidin-4-ylthio)-2,1,3-benzoxadiazole-4-sulfonamide] | ≥ 20 µM | ≥ 20 µM | ≥ 20 µM
COc1ccccc1Sc1ccc(S(=O)(=O)Nc2cccc(F)c2F)c2nonc12 [compound 378, N-(2,3-difluorophenyl)-7-([2-methoxyphenyl]thio)-2,1,3-benzoxadiazole-4-sulfonamide] | ≥ 20 µM | ≥ 20 µM | 1 to 20 µM
O=S(=O)(Nc1cccc(F)c1F)c1ccc(Sc2cccc3ccccc23)c2nonc12 [compound 379, N-(2,3-difluorophenyl)-7-(naphthalen-1-ylthio)-2,1,3-benzoxadiazole-4-sulfonamide] | 1 to 20 µM | ≥ 20 µM | 1 to 20 µM
O=S(=O)(Nc1ncccc1OCc1ccccc1)c1ccc(Cl)c2nonc12 [compound 380, N-(3-benzyloxypyridin-2-yl)-7-chloro-2,1,3-benzoxadiazole-4-sulfonamide] | ≥ 20 µM | 1 to 20 µM | ≥ 20 µM
COc1ccc(C)cc1NS(=O)(=O)c1ccc(Cl)c2nonc12 [compound 381, 7-chloro-N-(2-methoxy-5-methylphenyl)-2,1,3-benzoxadiazole-4-sulfonamide] | ≥ 20 µM | 1 to 20 µM | ≥ 20 µM
O=S(=O)(Nc1ncccc1OCc1ccccc1)c1ccc(N2CCOCC2)c2nonc12 [compound 382, N-(3-benzyloxypyridin-2-yl)-7-(morpholin-4-yl)-2,1,3-benzoxadiazole-4-sulfonamide] | ≥ 20 µM | ≥ 20 µM | ≥ 20 µM
O=S(=O)(Nc1cccc2ccc(O)cc12)c1ccc(Cl)c2nonc12 [compound 383, 7-chloro-N-(7-hydroxynaphthalen-1-yl)-2,1,3-benzoxadiazole-4-sulfonamide] | 1 to 20 µM | 1 to 20 µM | 1 to 20 µM
COc1ccc(C)cc1NS(=O)(=O)c1ccc(Sc2cccc3cccnc23)c2nonc12 [compound 384, N-(2-methoxy-5-methylphenyl)-7-(quinolin-8-ylthio)-2,1,3-benzoxadiazole-4-sulfonamide] | 1 to 20 µM | ≥ 20 µM | ≥ 20 µM
